Reference: PMC4051630, “A Comparison of Protein Kinases Inhibitor Screening Methods Using Both Enzymatic Activity and Binding Affinity Determination” (PLoS ONE, 2014)

Columns and labels:
Experiment in all cases: Differential Scanning Fluorimetry (DSF) Tm shift
Type in all cases: binding
CDK2 + Cyclin A = target: T1, CDK2 + Cyclin A (Homo sapiens, UniProt P24941); conditions: CDK2 + Cyclin A; 2 µM protein, 10 µM inhibitor; average of 3 experiments, each in duplicate
T1 construct: CDK2 (P24941); 1–299; His-tag; made in house; host or cells: Escherichia coli

CDK2 + Cyclin E = target: T2, CDK2 + Cyclin E (Homo sapiens, UniProt P24941); conditions: CDK2 + Cyclin E; 2 µM protein, 10 µM inhibitor; average of 3 experiments, each in duplicate
T2 construct: CDK2 (P24941); 1–299; His-tag; made in house; host or cells: Escherichia coli

CHK2 Catalytic Domain = target: T3, CHK2 Catalytic Domain (Homo sapiens, UniProt O96017); conditions: 2 µM protein, 10 µM inhibitor, average of 3 experiments, each in duplicate
T3 construct: For all of them, we expressed and purified the catalytic domain separately; His-tag; made in house; host or cells: Escherichia coli

DMPK Catalytic Domain = target: T4, DMPK Catalytic Domain (Homo sapiens, UniProt Q09013); conditions: 2 µM protein, 10 µM inhibitor, average of 3 experiments, each in duplicate
T4 construct: For all of them, we expressed and purified the catalytic domain separately; His-tag; made in house; host or cells: Escherichia coli
T4 sequence (Q09013 71-339 limits assumed): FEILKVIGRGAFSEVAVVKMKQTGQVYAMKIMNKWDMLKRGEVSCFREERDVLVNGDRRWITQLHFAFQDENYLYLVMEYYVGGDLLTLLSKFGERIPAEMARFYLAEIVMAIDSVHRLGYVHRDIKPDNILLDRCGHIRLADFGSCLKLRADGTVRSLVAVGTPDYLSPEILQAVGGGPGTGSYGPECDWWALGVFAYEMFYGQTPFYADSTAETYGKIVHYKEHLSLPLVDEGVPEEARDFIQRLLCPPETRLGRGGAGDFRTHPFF

FAK2 Catalytic Domain = target: T5, FAK2 Catalytic Domain (Homo sapiens, UniProt Q14289); conditions: 2 µM protein, 10 µM inhibitor, average of 3 experiments, each in duplicate
T5 construct: For all of them, we expressed and purified the catalytic domain separately; His-tag; made in house; host or cells: Escherichia coli

FES Catalytic Domain+SH2 = target: T6, FES Catalytic Domain+SH2 (Homo sapiens, UniProt P07332); conditions: 2 µM protein, 10 µM inhibitor, average of 3 experiments, each in duplicate
T6 construct: for 8, we also made a longer version containing one or more additional domains; His-tag; made in house; host or cells: Escherichia coli

FES Catalytic Domain = target: T7, FES Catalytic Domain (Homo sapiens, UniProt P07332); conditions: 2 µM protein, 10 µM inhibitor, average of 3 experiments, each in duplicate
T7 construct: For all of them, we expressed and purified the catalytic domain separately; His-tag; made in house; host or cells: Escherichia coli

[1] = target: T8, PAK4 Catalytic Domain+PBD (Homo sapiens, UniProt O96013); conditions: 2 µM protein, 10 µM inhibitor, average of 3 experiments, each in duplicate
T8 construct: for 8, we also made a longer version containing one or more additional domains; His-tag; made in house; host or cells: Escherichia coli

PAK4 Catalytic Domain = target: T9, PAK4 Catalytic Domain (Homo sapiens, UniProt O96013); conditions: 2 µM protein, 10 µM inhibitor, average of 3 experiments, each in duplicate
T9 construct: For all of them, we expressed and purified the catalytic domain separately; His-tag; made in house; host or cells: Escherichia coli

PAK7 Catalytic Domain = target: T10, PAK7 Catalytic Domain (Homo sapiens, UniProt Q9P286); conditions: 2 µM protein, 10 µM inhibitor, average of 3 experiments, each in duplicate
T10 construct: For all of them, we expressed and purified the catalytic domain separately; His-tag; made in house; host or cells: Escherichia coli

[2] = target: SRC Catalytic Domain+SH2+SH3 (Homo sapiens, UniProt P12931); conditions: 2 µM protein, 10 µM inhibitor, average of 3 experiments, each in duplicate
[3] = target: T11, STK3 Catalytic domain+SARAH (Homo sapiens, UniProt Q13188); conditions: 2 µM protein, 10 µM inhibitor, average of 3 experiments, each in duplicate
T11 construct: for 8, we also made a longer version containing one or more additional domains; His-tag; made in house; host or cells: Escherichia coli
T11 sequence (Q13188 1-491): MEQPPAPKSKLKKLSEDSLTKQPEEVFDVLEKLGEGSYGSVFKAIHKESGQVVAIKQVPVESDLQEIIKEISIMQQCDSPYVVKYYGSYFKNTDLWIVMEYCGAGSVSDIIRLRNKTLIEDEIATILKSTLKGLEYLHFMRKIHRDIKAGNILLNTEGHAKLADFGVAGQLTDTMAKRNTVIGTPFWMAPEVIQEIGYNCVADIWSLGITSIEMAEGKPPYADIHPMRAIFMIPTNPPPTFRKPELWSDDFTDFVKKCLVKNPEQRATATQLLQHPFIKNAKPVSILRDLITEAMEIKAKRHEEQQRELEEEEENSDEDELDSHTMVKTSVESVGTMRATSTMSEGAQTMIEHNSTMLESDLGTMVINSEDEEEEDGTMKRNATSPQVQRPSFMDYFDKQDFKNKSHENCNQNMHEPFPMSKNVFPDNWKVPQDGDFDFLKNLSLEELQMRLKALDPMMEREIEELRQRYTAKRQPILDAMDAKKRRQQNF

STK3 Catalytic Domain = target: T12, STK3 Catalytic Domain (Homo sapiens, UniProt Q13188); conditions: 2 µM protein, 10 µM inhibitor, average of 3 experiments, each in duplicate
T12 construct: For all of them, we expressed and purified the catalytic domain separately; His-tag; made in house; host or cells: Escherichia coli
T12 sequence (Q13188 27-278 limits assumed): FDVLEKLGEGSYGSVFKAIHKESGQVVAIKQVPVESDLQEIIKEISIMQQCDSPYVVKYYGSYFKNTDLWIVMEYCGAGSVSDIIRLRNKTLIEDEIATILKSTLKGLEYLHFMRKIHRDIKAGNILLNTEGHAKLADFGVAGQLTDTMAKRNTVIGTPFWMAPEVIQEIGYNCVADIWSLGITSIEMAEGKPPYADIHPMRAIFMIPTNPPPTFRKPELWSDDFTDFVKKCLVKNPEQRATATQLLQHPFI

SRC Catalytic Domain = SRC Catalytic Domain (Homo sapiens, UniProt P12931); set-up: For all of them, we expressed and purified the catalytic domain separately; His-tag; made in house; host or cells: Escherichia coli; conditions: 2 µM protein, 10 µM inhibitor, average of 3 experiments, each in duplicate
AKT3 Catalytic Domain = target: T13, AKT3 Catalytic Domain (Homo sapiens, UniProt Q9Y243); conditions: 2 µM protein, 10 µM inhibitor, average of 3 experiments, each in duplicate
T13 construct: AKT3 (Q9Y243); CD; His-tag; made in house; host or cells: Escherichia coli
T13 sequence (Q9Y243 122-479): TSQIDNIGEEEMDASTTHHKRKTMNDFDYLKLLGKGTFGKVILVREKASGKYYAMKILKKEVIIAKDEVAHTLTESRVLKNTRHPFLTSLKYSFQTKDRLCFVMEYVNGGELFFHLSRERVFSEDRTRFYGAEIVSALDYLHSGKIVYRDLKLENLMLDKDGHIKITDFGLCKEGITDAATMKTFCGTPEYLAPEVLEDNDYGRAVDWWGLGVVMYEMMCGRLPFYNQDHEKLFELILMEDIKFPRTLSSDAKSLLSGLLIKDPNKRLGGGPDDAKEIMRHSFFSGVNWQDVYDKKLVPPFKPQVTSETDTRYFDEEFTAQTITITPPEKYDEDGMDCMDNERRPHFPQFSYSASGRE

T9 sequence (O96013 321-572 limits assumed): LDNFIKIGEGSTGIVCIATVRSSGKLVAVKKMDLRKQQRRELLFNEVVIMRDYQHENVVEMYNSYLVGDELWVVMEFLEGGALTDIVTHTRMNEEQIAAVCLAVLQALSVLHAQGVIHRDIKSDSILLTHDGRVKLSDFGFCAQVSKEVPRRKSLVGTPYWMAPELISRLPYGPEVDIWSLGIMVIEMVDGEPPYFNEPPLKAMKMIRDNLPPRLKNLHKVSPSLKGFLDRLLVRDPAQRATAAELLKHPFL
T7 sequence (P07332 561-822 limits assumed): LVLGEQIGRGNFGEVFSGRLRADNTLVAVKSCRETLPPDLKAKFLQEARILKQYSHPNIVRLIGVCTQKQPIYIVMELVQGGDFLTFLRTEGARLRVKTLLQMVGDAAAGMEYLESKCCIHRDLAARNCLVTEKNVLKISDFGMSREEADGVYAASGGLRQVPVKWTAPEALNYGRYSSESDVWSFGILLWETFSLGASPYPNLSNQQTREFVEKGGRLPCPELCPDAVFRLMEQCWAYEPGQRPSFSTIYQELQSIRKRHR
T6 sequence (P07332 448-822 limits assumed): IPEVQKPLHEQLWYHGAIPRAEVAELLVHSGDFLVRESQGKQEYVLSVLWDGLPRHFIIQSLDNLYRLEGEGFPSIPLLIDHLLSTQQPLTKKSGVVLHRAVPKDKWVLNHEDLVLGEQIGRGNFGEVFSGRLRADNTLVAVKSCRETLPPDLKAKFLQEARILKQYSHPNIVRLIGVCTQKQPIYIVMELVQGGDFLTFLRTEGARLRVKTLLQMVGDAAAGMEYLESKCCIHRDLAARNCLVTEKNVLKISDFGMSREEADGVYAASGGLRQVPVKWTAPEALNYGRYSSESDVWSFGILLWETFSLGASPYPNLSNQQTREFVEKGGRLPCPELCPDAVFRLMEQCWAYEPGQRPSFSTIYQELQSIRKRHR
T5 sequence (Q14289 425-683 limits assumed): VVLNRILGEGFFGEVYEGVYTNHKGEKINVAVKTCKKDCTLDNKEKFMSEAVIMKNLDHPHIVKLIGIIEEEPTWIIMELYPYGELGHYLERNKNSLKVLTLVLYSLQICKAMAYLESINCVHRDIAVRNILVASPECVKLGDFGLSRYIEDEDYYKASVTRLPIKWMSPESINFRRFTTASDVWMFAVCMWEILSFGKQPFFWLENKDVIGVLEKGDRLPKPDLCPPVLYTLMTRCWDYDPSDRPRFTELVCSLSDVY
T8 sequence (O96013 whole entry, the tested form may be a part): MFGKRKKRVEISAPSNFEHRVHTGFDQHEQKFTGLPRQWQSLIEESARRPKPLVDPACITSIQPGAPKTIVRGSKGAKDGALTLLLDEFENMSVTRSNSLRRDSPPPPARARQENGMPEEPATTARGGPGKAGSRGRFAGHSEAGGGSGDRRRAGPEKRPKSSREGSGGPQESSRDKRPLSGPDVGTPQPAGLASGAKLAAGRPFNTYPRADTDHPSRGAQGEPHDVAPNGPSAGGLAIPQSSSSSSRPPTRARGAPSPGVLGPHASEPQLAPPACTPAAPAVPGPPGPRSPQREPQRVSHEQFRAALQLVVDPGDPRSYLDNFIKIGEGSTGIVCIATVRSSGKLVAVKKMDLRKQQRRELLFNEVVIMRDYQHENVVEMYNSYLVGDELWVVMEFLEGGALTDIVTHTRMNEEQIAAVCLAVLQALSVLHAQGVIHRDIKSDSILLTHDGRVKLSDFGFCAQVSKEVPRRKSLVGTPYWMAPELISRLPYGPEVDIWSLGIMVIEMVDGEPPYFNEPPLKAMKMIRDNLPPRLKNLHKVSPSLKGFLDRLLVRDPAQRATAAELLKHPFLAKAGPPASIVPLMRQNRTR
T3 sequence (O96017 220-486 limits assumed): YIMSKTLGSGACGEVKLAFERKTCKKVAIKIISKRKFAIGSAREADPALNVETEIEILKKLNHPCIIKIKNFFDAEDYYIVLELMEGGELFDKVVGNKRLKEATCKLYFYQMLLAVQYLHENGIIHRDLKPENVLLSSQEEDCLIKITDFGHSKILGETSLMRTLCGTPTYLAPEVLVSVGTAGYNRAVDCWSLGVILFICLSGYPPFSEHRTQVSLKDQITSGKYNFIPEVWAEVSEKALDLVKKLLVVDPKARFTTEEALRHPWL
T10 sequence (Q9P286 449-700 limits assumed): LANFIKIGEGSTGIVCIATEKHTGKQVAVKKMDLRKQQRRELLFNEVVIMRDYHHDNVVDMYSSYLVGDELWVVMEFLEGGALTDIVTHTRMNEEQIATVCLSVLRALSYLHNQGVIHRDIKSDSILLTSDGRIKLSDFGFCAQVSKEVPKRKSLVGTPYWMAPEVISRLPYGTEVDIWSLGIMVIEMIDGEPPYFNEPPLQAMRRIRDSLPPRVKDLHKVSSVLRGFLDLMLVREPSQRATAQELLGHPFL

Row | Compound | Melting temperature (Tm) shift (CDK2 + Cyclin A) [degrees Celcius] | Melting temperature (Tm) shift (CDK2 + Cyclin E) [degrees Celcius] | Melting temperature (Tm) shift (CHK2 Catalytic Domain) [degrees Celcius] | Melting temperature (Tm) shift (DMPK Catalytic Domain) [degrees Celcius] | Melting temperature (Tm) shift (FAK2 Catalytic Domain) [degrees Celcius] | Melting temperature (Tm) shift (FES Catalytic Domain+SH2) [degrees Celcius] | Melting temperature (Tm) shift (FES Catalytic Domain) [degrees Celcius] | Melting temperature (Tm) shift [1] [degrees Celcius] | Melting temperature (Tm) shift (PAK4 Catalytic Domain) [degrees Celcius] | Melting temperature (Tm) shift (PAK7 Catalytic Domain) [degrees Celcius] | Melting temperature (Tm) shift [2] [degrees Celcius] | Melting temperature (Tm) shift [3] [degrees Celcius] | Melting temperature (Tm) shift (STK3 Catalytic Domain) [degrees Celcius] | Melting temperature (Tm) shift (SRC Catalytic Domain) [degrees Celcius] | Melting temperature (Tm) shift (AKT3 Catalytic Domain) [degrees Celcius]
1 | c1nc2nc(Nc3ccc(N4CCOCC4)cc3)nc(NC3CCCCC3)c2[nH]1 [Reversine] | 0.7 | 0.8 | 4.7 | 3.4 | 3.6 | 1.5 | 4.5 | 4.2 | 4.3 | 3.3 | 2.6 | 3.4 | 3.5 | 3.1 | –
2 | CCN(CC)CCNC(=O)c1c(C)[nH]c(/C=C2\C(=O)Nc3ccc(Cl)cc32)c1C [SU11652] | 0.6 | 0.5 | 4.8 | 1.9 | 1.3 | 0.9 | 2.8 | 2.0 | 2.8 | – | 0.5 | 3.8 | – | 1.2 | –
3 | CCN(CC)C(=O)c1ccc(Nc2nc(OCC3CCCCC3)c3[nH]cnc3n2)cc1 [Cdk2 Inhibitor IV, NU6140] | 1.5 | 0.2 | 4.0 | 2.0 | 2.4 | 0.6 | 2.8 | 2.9 | 5.1 | 4.7 | 1.3 | 2.5 | 1.9 | 1.8 | –
4 | VEGF Receptor 2 Kinase Inhibitor I | – | 0.2 | 1.1 | 0.7 | 0.5 | 0.1 | 0.3 | 0.4 | 0.6 | – | 0.0 | 0.9 | – | 0.0 | 0.3
